Where no end group is shown, it is not given here.
System: drug-resistant Mycobacterium tuberculosis
Settings: 5 micrograms per ml

LEEEEEAYGWMDF-NH2 [Minigastrin I]
% inhibition: 0.0%
